pIC50, pKi: −log10 of the molar value. Where two headings read alike, the source gives them in different places.
Columns and labels:
α2A‐adrenoceptor = α2A‐adrenoceptor (Homo sapiens, UniProt P08913); test: Affinity at α2A-adrenoceptor; format: binding
anaesthetized rabbits = tested on: anaesthetized rabbits
Experimental: All the other experimental groups were 100% female. Animals were anaesthetized with sodium pentobarbital (45–60 mg·kg^−1 i.v.), maintained on a heated pad and mechanically ventilated with room air. […] A fluid‐filled catheter was inserted into the carotid artery to measure systemic arterial blood pressure and for blood sampling. A venous catheter was implanted into the jugular vein for infusion of drugs. Standard surface ECG leads I, II and III were monitored continuously to measure ECG intervals and the occurrence of ventricular tachyarrhythmia. Measurements of arterial blood pressures were calculated over 30 s duration at baseline and every 5 min. […] Then, for all determinations, the means of 10–30 consecutive sinus beats were automatically calculated at each time point (i.e. at the end of the stabilization period and then every 5 until 60 min after starting drug infusion) or until the occurrence of premature ventricular beats. Parameters recorded were systolic, diastolic and mean arterial blood pressure (mmHg), heart rate (beats·min^‐1 calculated from RR interval) as well as PR, QRS and QT/QTU intervals (ms), amplitudes of T‐wave and U‐wave (mV) and rhythm disturbances retrieved from ECG signals. […] Arrhythmia were scored according to the following scale: 0 being no arrhythmia, 1 being premature beats, 2 being auriculo‐ventricular blocks, 3 being ventricular tachycardia and 4 being TdP; and scores correspond to the average of maximal life‐threatening arrhythmias recorded during the experiment. […] Haemodynamic and ECG recordings were monitored continuously over 60 min following the start of infusion.

KV1.5 = molecular target: T1, KV1.5 (Homo sapiens, UniProt P22460); test: Whole-cell patch clamp on KV1.5 (IKur); format: cell-based
T1 construct: expressed in transfected cells
T1 sequence (P22460 whole entry): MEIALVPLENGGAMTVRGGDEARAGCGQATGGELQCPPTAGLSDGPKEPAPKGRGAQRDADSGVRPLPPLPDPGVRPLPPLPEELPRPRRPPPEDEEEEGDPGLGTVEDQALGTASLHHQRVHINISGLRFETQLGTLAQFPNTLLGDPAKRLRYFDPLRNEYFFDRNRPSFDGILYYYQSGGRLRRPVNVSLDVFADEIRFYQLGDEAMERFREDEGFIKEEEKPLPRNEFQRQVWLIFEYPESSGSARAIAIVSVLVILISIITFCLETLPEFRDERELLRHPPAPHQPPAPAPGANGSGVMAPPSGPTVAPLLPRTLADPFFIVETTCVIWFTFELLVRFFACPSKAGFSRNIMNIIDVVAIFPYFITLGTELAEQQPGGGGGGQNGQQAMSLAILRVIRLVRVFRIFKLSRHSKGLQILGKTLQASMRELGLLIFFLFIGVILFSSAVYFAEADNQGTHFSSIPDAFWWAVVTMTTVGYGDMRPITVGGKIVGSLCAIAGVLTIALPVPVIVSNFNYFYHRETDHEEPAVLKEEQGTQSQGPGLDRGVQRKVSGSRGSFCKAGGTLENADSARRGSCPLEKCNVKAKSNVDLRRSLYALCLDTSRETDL
Experimental: (§1) and CiPA Initiative Studies
(§2) =============================================================
(§3) In vitro studies on other ion channels […]
(§4) through NaV1.5, KV4.3, KV7.1/mink, Kir2.1, KV1.5, CaV1.2 and CaV3.2 channels.
(§5) 35-mm dish culture in the conditions mentioned in standard cell culture conditions. Experiments were performed with a cell density enabling isolated cells for patch clamping. Cells were continuously superfused with extracellular medium (1-2 mL∙minute-1) at room temperature.
(§6) D-glucose 10, HEPES 10 and the final pH adjusted to 7.4±0.02 with NaOH for recording NaV1.5, KV4.3, KV7.1/mink, Kir2.1, KV1.5 and CaV3.2 currents. It was (in mM): NaCl 110, KCl 4, BaCl2 20, MgCl2 1, D-glucose 20, HEPES 10 and the final pH adjusted to 7.4 ± 0.02 with NaOH for recording the CaV1.2 current. Compositions of the intracellular solution to fill the pipette are […]
(§7) Composition of intracellular solutions used to fill pipette to record currents through NaV1.5, KV4.3, KV7.1/mink, Kir2.1, KV1.5, CaV1.2 and CaV3.2 channels
(§8) Solution to fill the pipette (mM)
(§9) Creatine-phospho kinase 50 U∙mL-1
(§10) After formation of a Gigaohm seal between the patch electrodes and individual cells (pipette resistance range: 2.0 MΩ - 7.0 MΩ; seal resistance range: > 1 GΩ) the cell membrane across the pipette tip was ruptured to assure electrical access to the cell interior (whole-cell patch-configuration). In case the quality of the seal was poor, the process of seal formation was repeated with a different cell and a new pipette. As soon as a stable seal was established outward tail currents were measured upon pulses described in the Table S2. If current density was judged to be too low for measurement, another cell was recorded. […]
(§11) voltage stimulation protocol indicated in the next table continuously run until the steady-state level of block was reached.
(§12) Stimulation conditions used to record currents through NaV1.5, KV4.3, KV7.1/mink, Kir2.1, KV1.5, CaV1.2 and CaV3.2 channels
(§13) Ion channel Holding potential Pulse / duration Frequency Reference compound […]
(§14) (resting / fast / slow sweeps at one (10 mM) inactivated concentration)

KV7.1/mink = molecular target: T2, KV7.1/mink (Homo sapiens, UniProt P51787); test: Whole-cell patch clamp on KV7.1/mink (IKs); format: cell-based
T2 construct: expressed in transfected cells
Experimental: as §1, §2, §3, §4, §5, §6, §7, §8, §9, §10, §11, §12, §13, §14

CaV1.2 = CaV1.2 (Homo sapiens, UniProt Q13936); test: cell-based
Experimental: as §1, §2, §3, §4, §5, §6, §7, §8, §9, §10, §11, §12, §13, §14

NaV1.5 = NaV1.5 (Homo sapiens, UniProt Q14524); test: cell-based
Chain of NaV1.5 (Q14524 whole entry): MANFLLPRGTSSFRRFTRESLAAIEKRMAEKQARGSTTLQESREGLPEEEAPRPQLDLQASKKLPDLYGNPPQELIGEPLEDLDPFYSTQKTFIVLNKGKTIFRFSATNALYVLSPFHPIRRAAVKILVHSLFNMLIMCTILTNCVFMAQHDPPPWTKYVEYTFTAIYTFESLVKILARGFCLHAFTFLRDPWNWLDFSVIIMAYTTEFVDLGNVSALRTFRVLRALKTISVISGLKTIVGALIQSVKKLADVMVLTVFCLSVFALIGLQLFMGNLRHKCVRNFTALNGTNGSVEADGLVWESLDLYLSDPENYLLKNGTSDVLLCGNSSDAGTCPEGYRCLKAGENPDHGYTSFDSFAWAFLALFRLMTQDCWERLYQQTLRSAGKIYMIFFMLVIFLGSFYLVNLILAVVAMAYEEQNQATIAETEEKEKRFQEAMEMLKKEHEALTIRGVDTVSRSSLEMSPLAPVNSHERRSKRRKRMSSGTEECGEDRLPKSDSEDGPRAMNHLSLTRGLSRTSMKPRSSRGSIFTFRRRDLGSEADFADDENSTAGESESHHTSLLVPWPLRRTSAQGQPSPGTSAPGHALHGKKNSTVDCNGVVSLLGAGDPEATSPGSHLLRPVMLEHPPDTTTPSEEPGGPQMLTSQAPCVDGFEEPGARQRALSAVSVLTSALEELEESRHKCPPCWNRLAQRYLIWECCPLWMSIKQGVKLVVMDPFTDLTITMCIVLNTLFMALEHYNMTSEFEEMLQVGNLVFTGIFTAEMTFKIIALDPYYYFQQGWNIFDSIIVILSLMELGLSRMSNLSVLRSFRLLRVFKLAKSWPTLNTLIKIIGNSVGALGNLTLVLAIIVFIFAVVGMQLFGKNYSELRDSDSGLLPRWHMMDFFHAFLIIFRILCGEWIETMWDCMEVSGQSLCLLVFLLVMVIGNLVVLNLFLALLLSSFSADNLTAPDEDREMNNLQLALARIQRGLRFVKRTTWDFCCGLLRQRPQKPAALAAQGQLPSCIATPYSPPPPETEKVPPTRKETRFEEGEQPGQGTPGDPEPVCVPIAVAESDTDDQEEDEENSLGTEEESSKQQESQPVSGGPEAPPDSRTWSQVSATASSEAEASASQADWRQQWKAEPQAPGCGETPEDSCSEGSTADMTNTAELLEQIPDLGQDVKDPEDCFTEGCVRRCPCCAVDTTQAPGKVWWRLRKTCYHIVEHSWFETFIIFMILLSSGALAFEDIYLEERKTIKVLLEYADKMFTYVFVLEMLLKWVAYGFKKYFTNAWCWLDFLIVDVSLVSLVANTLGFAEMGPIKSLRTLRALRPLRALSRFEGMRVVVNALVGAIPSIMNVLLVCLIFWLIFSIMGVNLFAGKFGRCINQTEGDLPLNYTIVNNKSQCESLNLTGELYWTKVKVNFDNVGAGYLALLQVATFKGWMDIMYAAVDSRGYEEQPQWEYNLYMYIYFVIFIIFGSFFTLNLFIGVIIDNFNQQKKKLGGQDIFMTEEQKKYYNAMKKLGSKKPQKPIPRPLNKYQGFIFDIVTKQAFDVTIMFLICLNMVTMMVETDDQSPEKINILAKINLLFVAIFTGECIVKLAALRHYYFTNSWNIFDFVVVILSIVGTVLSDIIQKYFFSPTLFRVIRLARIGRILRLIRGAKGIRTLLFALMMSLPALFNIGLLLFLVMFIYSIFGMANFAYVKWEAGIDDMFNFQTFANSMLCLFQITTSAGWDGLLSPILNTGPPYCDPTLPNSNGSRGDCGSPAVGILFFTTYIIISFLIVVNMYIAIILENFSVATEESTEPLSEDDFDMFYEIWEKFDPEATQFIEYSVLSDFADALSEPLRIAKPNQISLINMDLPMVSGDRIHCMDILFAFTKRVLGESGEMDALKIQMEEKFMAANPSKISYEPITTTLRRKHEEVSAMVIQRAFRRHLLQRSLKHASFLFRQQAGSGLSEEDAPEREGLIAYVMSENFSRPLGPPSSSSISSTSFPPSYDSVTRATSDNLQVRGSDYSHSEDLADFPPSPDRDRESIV
Experimental: as §1, §2, §3, §4, §5, §6, §7, §8, §9, §10, §11, §12, §13, §14

rabbit Purkinje fibres = test: Dofetilide-induced early after-depolarizations and triggered activity in rabbit Purkinje fibres; format: cell-based; conditions: for APD90: 0.25 Hz
Experimental: Following a lethal dose of pentobarbital, the hearts of male New Zealand rabbits were immediately excised and immersed in a modified Tyrode solution maintained at room temperature and previously saturated with O2/CO2 (95%/5%). A piece of ventricle containing free running Purkinje fibres was fixed to the silastic bottom of an organ bath perfused with the same solution maintained at 37°C for 30 min. The preparation was then superfused with the modified Tyrode solution and stimulated for 30 min at 2 Hz and then at 1 Hz (2 ms stimulus at twice threshold). […] After a stabilization period of at least 1 h, action potentials typical for Purkinje fibres were recorded. Action potential reproducibility and stability were confirmed during a further 20 min stabilization period. […] Each was applied for 20 min to enable steady state to be reached. In addition, the emergence of early after‐depolarizations (EADs), favoured by calcium loading during the late phase 2 of the prolonged action potential, is recognized as a better marker of pro‐arrhythmic potential than APD prolongation alone.

α2C‐adrenoceptor = α2C‐adrenoceptor (Homo sapiens, UniProt P18825); test: Affinity at α2C-adrenoceptor; format: binding
Chain of α2C‐adrenoceptor (P18825 whole entry, the tested form may be a part): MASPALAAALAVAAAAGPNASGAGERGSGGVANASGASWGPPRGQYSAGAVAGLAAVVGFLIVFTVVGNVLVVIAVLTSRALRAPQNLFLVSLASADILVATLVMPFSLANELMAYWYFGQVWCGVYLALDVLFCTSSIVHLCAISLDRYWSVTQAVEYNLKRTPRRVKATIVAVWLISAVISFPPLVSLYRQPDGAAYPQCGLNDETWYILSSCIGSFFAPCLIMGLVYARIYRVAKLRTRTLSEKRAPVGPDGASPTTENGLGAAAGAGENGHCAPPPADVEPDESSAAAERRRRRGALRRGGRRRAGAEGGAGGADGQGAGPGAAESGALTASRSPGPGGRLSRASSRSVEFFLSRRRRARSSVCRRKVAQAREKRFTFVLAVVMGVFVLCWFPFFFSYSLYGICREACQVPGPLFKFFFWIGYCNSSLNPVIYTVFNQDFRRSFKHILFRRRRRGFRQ

[1] = cumulative i.v. infusion 1, 3.3 and 10 mg·kg^−1 in successive 20 min steps
[2] = 10 μM pitolisant, dofetilide 0.1 μM

Chain of α2A‐adrenoceptor (P08913 whole entry): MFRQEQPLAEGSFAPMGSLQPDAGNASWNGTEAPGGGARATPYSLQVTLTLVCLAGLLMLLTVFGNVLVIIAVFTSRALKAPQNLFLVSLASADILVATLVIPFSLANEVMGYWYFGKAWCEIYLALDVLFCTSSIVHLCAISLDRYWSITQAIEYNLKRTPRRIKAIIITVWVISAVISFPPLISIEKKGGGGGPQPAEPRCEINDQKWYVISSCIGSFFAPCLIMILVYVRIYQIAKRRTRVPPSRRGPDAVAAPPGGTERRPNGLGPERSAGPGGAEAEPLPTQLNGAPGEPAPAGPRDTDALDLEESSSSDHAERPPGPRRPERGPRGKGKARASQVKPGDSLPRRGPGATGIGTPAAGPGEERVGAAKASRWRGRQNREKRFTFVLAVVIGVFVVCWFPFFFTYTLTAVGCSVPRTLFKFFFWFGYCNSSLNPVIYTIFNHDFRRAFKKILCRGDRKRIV

## Cl.Clc1ccc(CCCOCCCN2CCCCC2)cc1 [pitolisant, 1‐{3‐[3‐(4‐chlorophenyl)propoxy]propyl}piperidine, hydrochloride]
α2A‐adrenoceptor
  pKi: 5.54
Anaesthetized rabbits; 1 mg·kg^−1 infused over 1 h, 10 min into infusion
  QTc interval (ms) (mean ± SEM): 154 ± 2 ms
Anaesthetized rabbits; 1 mg·kg^−1 infused over 1 h, 20 min into infusion
  QTc interval (ms) (mean ± SEM): 156 ± 2 ms
Anaesthetized rabbits; 1 mg·kg^−1 infused over 1 h, 30 min into infusion
  QTc interval (ms) (mean ± SEM): 156 ± 2 ms
Anaesthetized rabbits; 1 mg·kg^−1 infused over 1 h, 40 min into infusion
  QTc interval (ms) (mean ± SEM): 156 ± 2 ms
Anaesthetized rabbits; 1 mg·kg^−1 infused over 1 h, 50 min into infusion
  QTc interval (ms) (mean ± SEM): 157 ± 2 ms
Anaesthetized rabbits; 1 mg·kg^−1 infused over 1 h, 60 min into infusion
  QTc interval (ms) (mean ± SEM): 157 ± 3 ms
Anaesthetized rabbits; 1 mg·kg^−1 infused over 1 h, baseline
  QTc interval (ms) (mean ± SEM): 152 ± 3 ms
Anaesthetized rabbits; 10 mg·kg^−1 dose range (successively over 20 min at 1, 3.3 and 10 mg·kg^−1), 10 min into infusion
  QTc interval (ms) (mean ± SEM): 148 ± 3 ms
Anaesthetized rabbits; 10 mg·kg^−1 dose range (successively over 20 min at 1, 3.3 and 10 mg·kg^−1), 20 min into infusion
  QTc interval (ms) (mean ± SEM): 149 ± 2 ms
Anaesthetized rabbits; 10 mg·kg^−1 dose range (successively over 20 min at 1, 3.3 and 10 mg·kg^−1), 30 min into infusion
  QTc interval (ms) (mean ± SEM): 151 ± 2 ms
Anaesthetized rabbits; 10 mg·kg^−1 dose range (successively over 20 min at 1, 3.3 and 10 mg·kg^−1), 40 min into infusion
  QTc interval (ms) (mean ± SEM): 151 ± 1 ms
Anaesthetized rabbits; 10 mg·kg^−1 dose range (successively over 20 min at 1, 3.3 and 10 mg·kg^−1), 50 min into infusion
  QTc interval (ms) (mean ± SEM): 148 ± 4 ms
Anaesthetized rabbits; 10 mg·kg^−1 dose range (successively over 20 min at 1, 3.3 and 10 mg·kg^−1), 60 min into infusion
  QTc interval (ms) (mean ± SEM): 147 ± 2 ms
Anaesthetized rabbits; 10 mg·kg^−1 dose range (successively over 20 min at 1, 3.3 and 10 mg·kg^−1), baseline
  QTc interval (ms) (mean ± SEM): 144 ± 4 ms
Anaesthetized rabbits; cumulative i.v. infusion 1, 3.3 and 10 mg·kg^−1, from total 13.8 μM
  free drug concentration: ~ 0.55 μM
Anaesthetized rabbits; [1]
  change in QTc interval vs. baseline: 2 ± 1%
  decrease in heart rate: 17 ± 4%
  maximal total drug exposure: 4140 ± 450 ng/mL
  total drug concentration: 13.8 ± 1.5 µM
Anaesthetized rabbits; pitolisant 10 mg·kg^−1
  effect on ventricular premature beats, ventricular tachycardia and TdP induced by clofilium (1 mg·kg^−1): abolished
Anaesthetized rabbits; pitolisant single dose 1 mg·kg^−1 i.v. over 60 min
  change in QTc interval: +3 ± 1%
Anaesthetized rabbits; up to 10 mg·kg^−1 by i.v. slow infusion
  ventricular arrhythmias: never observed
KV1.5; KV1.5 IKur, Hill curve fit with Hill coefficient of one, read-out: Fitted IC50
  pIC50: 4.86
KV1.5; Pitolisant IC50, KV1.5, IKur
  pIC50: ≤ 5.00
KV7.1/mink; KV7.1/mink IKs, Hill curve fit with Hill coefficient of one
  Fitted IC50: No effect
KV7.1/mink; KV7.1/mink, IKs
  pIC50: < 5.00
CaV1.2; Fitted IC50, CaV1.2 ICaL, Hill curve fit with Hill coefficient of one
  pIC50: 5.02
CaV1.2; Pitolisant IC50, CaV1.2, ICaL
  pIC50: ~5.00
NaV1.5; Fitted IC50, fit to fast inactivated Nav1.5
  pIC50: 4.58
NaV1.5; Fitted IC50, fit to slow inactivated Nav1.5
  pIC50: 4.58
NaV1.5; Fitted IC50, mean of fits to fast and slow inactivated Nav1.5, used for the whole Nav1.5 current, Hill coefficient of one
  pIC50: 4.58
NaV1.5; Pitolisant IC50, NaV1.5 fast inactivated state, INa
  pIC50: ≤ 5.00
NaV1.5; Pitolisant IC50, NaV1.5 resting state, INa
  pIC50: < 5.00
NaV1.5; Pitolisant IC50, NaV1.5 slow inactivated state, INa
  pIC50: ≤ 5.00
Rabbit Purkinje fibres; 1 μM pitolisant, dofetilide 0.1 μM
  effect on dofetilide-induced EADs: no effect (in four out of four experiments)
Rabbit Purkinje fibres; 3 μM pitolisant, dofetilide 0.1 μM
  inhibition of dofetilide-induced EADs (experiments): two out of three
Rabbit Purkinje fibres; [2]
  suppression of dofetilide-induced EADs (experiments): all seven
  suppression of dofetilide-induced spontaneous triggered activity (experiments): one out of one
Rabbit Purkinje fibres; dofetilide 0.1 μM for 1 h10 and pitolisant 10 μM for 15 min
  APD90: 275 ms
Rabbit Purkinje fibres; dofetilide 0.1 μM for 55 min and pitolisant 1 μM for 20 min
  APD90: 598 ms
α2C‐adrenoceptor
  pKi: 5.92
